“Also recorded” adds a separate entry of the source. Where two headings read alike, the source gives them in different places.
Legend:
StITPK1 [1] = target: T1, StITPK1 (Solanum tuberosum, UniProt A4H2J0); test: Reverse (phosphotransfer to ADP) assay, HPLC; format: biochemical; settings: 0.5 mM ADP, 12h
Protocol: The low rate constants for phospho-kinase activity and the low sensitivity of NMR, PAGE and HPLC […]
(§1) [2-3, 27-29], here with or without 4 µM protein for 3h or 12h at 25 °C. […]
(§2) (phosphotransfer to ADP) assays were performed with 20 mM HEPES pH 6.5, 1 mM MgCl2, 0.5mM ADP and 0.5 mM inositol pyrophosphate substrate incubated with 4 µM protein at 25 °C . HPLC analysis and detection of inositol phosphates by complexation with ferric ion was performed as described. Peak area data were analysed with the chromatography Jasco ChromNav v.2 software and x,y data were imported into GraphPad Prism v.6 software (GraphPad Software Inc., San Diego, USA) for plotting of chromatograms without additional processing of the data. […]

StITPK1 [2] = target: T1, StITPK1; test: Kinase assay with ATP, HPLC of products; format: biochemical; settings: for Product formation (3h) / Product formation (12h) / Product formation (separate 12h experiment): 1 mM substrate; for Product formation (3h) / Product formation (12h): 25°C; for kinase substrate status: with ATP, HPLC
Protocol: (§3) Kinase assays were performed with ATP-regeneration as described for ATP-grasp kinases ITPK1/2 and VIH1/2 [2-3, 27-29], here in 20 mM HEPES pH 6.5, 1 mM MgCl2, 0.5 mM ATP and 1 mM inositol phosphate substrate. The low rate constants for phospho-kinase activity and the low sensitivity of NMR, PAGE and HPLC […]
[2-3, 27-29], here with or without 4 µM protein for 3h or 12h at 25 °C. Competition/inhibition assays were […]
InsP6, and competitor, typically 0.5 mM, incubated with or without 3 µM protein for 2 h at 25 °C . […]
as §2, with “0.5” for “(phosphotransfer to ADP) assays were performed with 20 mM HEPES pH 6.5, 1 mM MgCl2, 0.5mM ADP and 0.5”

AtITPK1 = target: T2, AtITPK1; test: Kinase assay with ATP, HPLC of products; format: biochemical, Arabidopsis thaliana; settings: with ATP, HPLC
T2 construct: made in house
Protocol: as §3, §1
as §2, with “0.5” for “(phosphotransfer to ADP) assays were performed with 20 mM HEPES pH 6.5, 1 mM MgCl2, 0.5mM ADP and 0.5”

StITPK1 [3] = target: T1, StITPK1; test: Competition/inhibition of Ins(1,2,3,4,5)P5 5-phospho-kinase activity, HPLC; format: biochemical; settings: for % inhibition at 3h, Ins(1,2,3,4,5)P5 substrate: 0.5 mM competing substrate/inhibitor, 1 mM Ins(1,2,3,4,5)P5, 3h experiment; for inhibition of Ins(1,2,3,4,5)P5 phospho-kinase activity: 0.5 mM competitor
StITPK1 [4] = target: T1, StITPK1; test: Fluorescence polarization displacement of 2-FAM-InsP5; format: binding; settings: Cheng-Prusoff with Kd 48 nM
Text: To determine the relative strengths of binding of different inositol phosphate and inositol pyrophosphate substrates of StITPK1 we undertook fluorescence polarization experiments with 2-FAM-InsP5 [35]. […] A saturation curve for binding of 2-FAM-InsP5 to StITPK1 is shown (Figure S5) and displacement curves are shown for diverse inositol phosphates (Figure 2). The structures of these compounds are shown (Figure S1). […]
Fluorescence polarization (anisotropy)
A curve for binding of 2-FAM-InsP5 to StITPK1 was obtained by incubation of 2 nM 2-FAM-InsP5 [1] with increasing concentration (1-500 nM) of StITPK1 in 20 mM HEPES pH 6.5, 1 mM EDTA, 100 mM NaCl, after. Thereafter, displacement assays were performed by titration of inositol phosphate, inositol pyrophosphate […]
or analog thereof with 2 nM 2-FAM-InsP5 and 50 nM StITPK1. Compounds were tested for displacement in a range of 1 nM - 50 µM. Fluorescence polarization was measured in 384-well, black, low-binding plates, Corning product 3573. Binding and displacement curves (anisotropy) were log transformed and fitted to a 4-parameter logistic (in GraphPad Prism v.6 software (GraphPad Software Inc., San Diego, USA). Fitting of the […]
Substituting the value of Kd for KM in the Cheng-Prusoff equation for competitive inhibition: […]
with concentration of 2-FAM-InsP5 [S], yielded Ki with confidence intervals adjusted by linear approximation.
M.; Jamieson, A. G.; Potter, B. V.; Schwabe, J. W., Insights into the activation mechanism of class I HDAC complexes by inositol phosphates. Nat Commun 2016, 7, 11262. […]

[5] = Ki for displacement of 2-FAM-InsP5, 2 nM 2-FAM-InsP5, 50 nM StITPK1, pH 6.5
[6] = 2 nM 2-FAM-InsP5, 50 nM StITPK1, pH 6.5, read-out: Ki for displacement of 2-FAM-InsP5

T1 sequence (A4H2J0 entry or part of it): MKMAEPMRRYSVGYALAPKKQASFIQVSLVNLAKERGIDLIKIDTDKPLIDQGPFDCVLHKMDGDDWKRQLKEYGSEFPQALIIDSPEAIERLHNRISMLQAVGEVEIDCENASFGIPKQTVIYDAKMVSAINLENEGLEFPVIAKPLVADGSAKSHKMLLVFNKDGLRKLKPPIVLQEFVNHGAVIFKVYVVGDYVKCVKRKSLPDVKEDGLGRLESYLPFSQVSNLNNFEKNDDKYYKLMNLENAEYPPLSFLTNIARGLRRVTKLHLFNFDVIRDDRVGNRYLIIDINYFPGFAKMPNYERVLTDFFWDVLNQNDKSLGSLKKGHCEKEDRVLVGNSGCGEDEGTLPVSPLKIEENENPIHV

Row | SMILES | substrate for phosphotransfer to ADP (StITPK1 [1]) | Product formation (3h) (StITPK1 [2]) [μM/μM protein] | Product formation (12h) (StITPK1 [2]) [μM/μM protein] | kinase substrate status (StITPK1 [2]) | kinase substrate status (AtITPK1) | % inhibition at 3h, Ins(1,2,3,4,5)P5 substrate (StITPK1 [3]) [%] | inhibition of Ins(1,2,3,4,5)P5 phospho-kinase activity (StITPK1 [3]) | Ki (StITPK1 [4]; [5]) [nM] | Ki (StITPK1 [4]; [6]) [nM] | Product formation (separate 12h experiment) (StITPK1 [2]) [μM/μM protein]
1 | O=P(O)(O)CP(=O)(O)OC1C(OP(=O)(O)O)C(OP(=O)(O)O)C(OP(=O)(O)O)C(OP(=O)(O)CP(=O)(O)O)C1OP(=O)(O)O (stereo not drawn) [1,5-[PCP]2-InsP4] | neither | – | – | – | – | – | – | – | – | –
2 | O=P(O)(O)O[C@@H]1[C@@H](OP(=O)(O)O)[C@H](OP(=O)(O)OP(=O)(O)O)[C@@H](OP(=O)(O)O)[C@H](OP(=O)(O)OP(=O)(O)O)[C@@H]1OP(=O)(O)O [1,5-[PP]2-InsP4, 1D-1,5-bis-diphospho-myo-inositol 2,3,4,6-tetrakisphosphate] | both enantiomers are substrates | – | – | – | – | – | – | – | – | –
3 | O=P(O)(O)CP(=O)(O)O[C@@H]1[C@H](OP(=O)(O)O)[C@H](OP(=O)(O)O)[C@@H](OP(=O)(O)O)[C@H](OP(=O)(O)O)[C@H]1OP(=O)(O)O [1-PCP-InsP5, myo-inositol 2,3,4,5,6-penta-phosphate-1-methylenediphosphonate] | – | 22 | 145 | better substrates | better substrates | 61 | potent inhibitors | – | – | –
4 | O=P(O)(O)O[C@@H]1[C@@H](OP(=O)(O)O)[C@@H](OP(=O)(O)O)[C@@H](OP(=O)(O)OP(=O)(O)O)[C@H](OP(=O)(O)O)[C@H]1OP(=O)(O)O [1-PP-InsP5, 1D-1-diphospho-myo-inositol 2,3,4,5,6-pentakisphosphate] | – | 9 | 75 | the weaker substrate | – | 76 | – | – | – | –
5 | O=P(O)(O)O[C@@H]1[C@H](OP(=O)(O)O)[C@H](OP(=O)(O)OP(=O)(O)O)[C@@H](OP(=O)(O)O)[C@H](OP(=O)(O)OP(=O)(O)O)[C@H]1OP(=O)(O)O [3,5-[PP]2-InsP4, 1D-3,5-bis-diphospho-myo-inositol 1,2,4,6-tetrakisphosphate] | both enantiomers are substrates | – | – | – | – | – | – | – | – | –
6 | O=P(O)(O)CP(=O)(O)OC1C(OP(=O)(O)O)C(OP(=O)(O)O)C(OP(=O)(O)O)C(OP(=O)(O)O)C1OP(=O)(O)O (stereo not drawn) [3-PCP-InsP5, myo-inositol 1,2,4,5,6-penta-phosphate-3-methylenediphosphonate] | – | 41 | 232 | better substrates | better substrates | 78 | potent inhibitors | – | – | –
7 | O=P(O)(O)OC1[C@@H](OP(=O)(O)O)[C@H](OP(=O)(O)O)C(OP(=O)(O)OP(=O)(O)O)[C@@H](OP(=O)(O)O)[C@H]1OP(=O)(O)O (stereo partly drawn) [3-PP-InsP5, 1D-3-diphospho-myo-inositol 1,2,4,5,6-pentakisphosphate] | – | 35 | 193 | phospho-kinase substrates; also recorded: a stronger substrate than 1-PP-InsP5 | a stronger substrate than 1-PP-InsP5 | 71 | – | – | – | –
8 | O=C(O)CP(=O)(O)O[C@H]1[C@H](OP(=O)(O)O)[C@@H](OP(=O)(O)O)[C@@H](OP(=O)(O)O)[C@@H](OP(=O)(O)O)[C@@H]1OP(=O)(O)O [5-PA-InsP5, myo-inositol 1,2,3,4,6-penta-phosphate-5-phosphonoacetate] | – | 50 | 236 | strongest phospho-kinase substrate after myo-InsP6 | weak substrate | 44 | – | – | – | –
9 | O=C(NC1C(OP(=O)(O)O)C(OP(=O)(O)O)C(OP(=O)(O)O)C(OP(=O)(O)O)C1OP(=O)(O)O)C(F)(F)P(=O)(O)O (stereo not drawn) [5-PCF2AM-InsP5, 5-deoxy-5-(phosphonodifluoroacetamido)-myo-inositol 1,2,3,4,6-pentakisphosphate] | – | 0 | 0 | not a substrate | – | 67 | – | 106 | – | –
10 | O=C(CP(=O)(O)O)NC1C(OP(=O)(O)O)C(OP(=O)(O)O)C(OP(=O)(O)O)C(OP(=O)(O)O)C1OP(=O)(O)O (stereo not drawn) [5-PCH2AM-InsP5, 5-deoxy-5-(phosphonoacetamido)-myo-inositol 1,2,3,4,6-pentakisphosphate] | – | 0 | 25 | very weak substrates | – | 43 | – | 889 | – | –
11 | O=P(O)(O)CP(=O)(O)OC1C(OP(=O)(O)O)C(OP(=O)(O)O)C(OP(=O)(O)O)C(OP(=O)(O)O)C1OP(=O)(O)O (stereo not drawn) [5-PCP-InsP5, myo-inositol 1,2,3,4,6-penta-phosphate-5-methylenediphosphonate] | – | 0 | 0 | – | – | 60 | – | – | 101 | –
12 | O=P(O)(O)OC1C(OP(=O)(O)O)C(OP(=O)(O)O)C(OP(=O)(O)O)C(OP(=O)(O)O)C1OP(=O)(O)O [D-chiro-InsP6, 1-D-chiro-inositol 1,2,3,4,5,6-hexakisphosphate] | – | – | 0 | not a substrate | – | – | – | 154 | – | 0
13 | O=P(O)(O)O[C@@H]1[C@@H](OP(=O)(O)O)[C@H](OP(=O)(O)O)[C@@H](O)[C@H](OP(=O)(O)O)[C@@H]1OP(=O)(O)O [Ins(1,2,3,4,5)P5, 1D-myo-inositol 1,2,3,4,5-pentakisphosphate] | – | – | – | showing phospho-kinase activity | – | – | – | – | 431 | 257
14 | O=P(O)(O)O[C@@H]1[C@H](OP(=O)(O)O)[C@H](OP(=O)(O)O)[C@@H](O)[C@H](OP(=O)(O)O)[C@H]1OP(=O)(O)O [Ins(1,2,3,5,6)P5, 1D-myo-inositol 1,2,3,5,6-pentakisphosphate] | – | – | – | lacking activity | – | – | – | – | 288 | 0
15 | O=P(O)(O)O[C@@H]1[C@@H](OP(=O)(O)O)[C@H](OP(=O)(O)O)[C@@H](O)[C@@H](O)[C@H]1OP(=O)(O)O [Ins(1,4,5,6)P4, 1D-myo-inositol 1,4,5,6-tetrakisphosphate] | – | – | – | – | – | – | – | – | 2560 | 41
16 | O=P(O)(O)OC1C(OP(=O)(O)O)C(OP(=O)(O)O)C(OP(=O)(O)O)C(OP(=O)(O)O)C1OP(=O)(O)O (stereo not drawn) [neo-InsP6, neo-inositol 1,2,3,4,5,6-hexakisphosphate] | – | – | 0 | failure of StITPK1 to phosphorylate | – | – | – | 111 | – | 0
17 | O=P(O)(O)OC1C(OP(=O)(O)O)C(OP(=O)(O)O)C(OP(=O)(O)O)C(OP(=O)(O)O)C1OP(=O)(O)O (stereo not drawn) [scyllo-InsP6, scyllo-inositol 1,2,3,4,5,6-hexakisphosphate] | – | – | 0 | failure of StITPK1 to phosphorylate | – | – | – | 423 | – | 0

— PMC10765375, “Crystal structure and enzymology of Solanum tuberosum inositol tris/tetrakisphosphate kinase 1 (StITPK1)” (Biochemistry, 2023)
